{
  "source": "patent US20220378761A1",
  "about": "“PAPD5 Inhibition As A Treatment For Dyskeratosis Congenita, Aplastic Anemia And Myelodysplastic Syndrome Caused By Reduced Telomerase RNA Levels” (The Regents of The University of Colorado, A Body Corporate, priority 2019, published 2022)",
  "key": {"[1]": {"conditions": "cited from earlier work"}, "DKC1_A353V hESCs [2]": {"tested_on": "DKC1_A353V hESCs", "test": "Toxicity in DKC1_A353V hESCs (NANOG qRT-PCR, EdU incorporation)", "type": "cell-based, Homo sapiens", "conditions": "concentrations indicated, entire duration (60 days)", "procedure": "FIG. 5. No detectable RG7834 toxicity in hESCs. (A) Representative immunoblot analysis of γH2AX in DKC1_A353V hESCs treated with different concentrations of RG7834 (indicated in the figure). Positive control: Etoposide 50 nM. Actin is shown as a loading control. (B) Quantification of NANOG by qRT-PCR in DKC1_A353V hESCs treated with DMSO or different concentrations of RG7834 (as indicated) for 60 days. (C) Flow cytometry analysis of EdU incorporation with DNA content (DAPI) in DKC1_A353V hESCs, treated with DMSO or 5 μM of RG7834 for 60 days. Quantification of active proliferating cells (EdU positive) is indicated. (D) MA plot for the analysis of RNA-sequencing experiments between DMSO or RG7834 treated DKC1_A353V hESCs. No significant differences in gene expression were found.\nThe present inventors investigated if treatment with RG7834 was sufficient to reduce DNA damage signaling arising from eroded telomeres, a hallmark of DC."}, "PAPD5": {"molecular_target": "T1, PAPD5 (Homo sapiens, UniProt Q8NDF8)", "T1 construct": "endogenous in cells; host or cells: DKC1_A353V mutant hESCs (H1; WA01), made by CRISPR/Cas9 editing", "T1 sequence (Q8NDF8 whole entry)": "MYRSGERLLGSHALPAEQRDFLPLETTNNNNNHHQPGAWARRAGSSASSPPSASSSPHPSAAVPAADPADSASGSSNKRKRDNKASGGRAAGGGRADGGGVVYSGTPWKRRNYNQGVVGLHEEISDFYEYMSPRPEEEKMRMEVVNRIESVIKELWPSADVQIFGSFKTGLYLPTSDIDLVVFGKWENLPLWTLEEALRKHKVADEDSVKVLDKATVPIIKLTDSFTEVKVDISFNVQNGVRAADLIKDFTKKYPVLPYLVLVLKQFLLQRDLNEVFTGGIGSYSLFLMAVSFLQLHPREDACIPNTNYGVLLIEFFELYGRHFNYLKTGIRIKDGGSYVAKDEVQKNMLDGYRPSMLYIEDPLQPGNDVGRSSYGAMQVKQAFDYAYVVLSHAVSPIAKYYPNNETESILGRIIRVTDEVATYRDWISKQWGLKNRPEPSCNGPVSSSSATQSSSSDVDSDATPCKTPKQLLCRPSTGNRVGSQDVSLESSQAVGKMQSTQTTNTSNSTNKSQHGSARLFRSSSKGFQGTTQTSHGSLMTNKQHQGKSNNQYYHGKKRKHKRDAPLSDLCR", "test": "3′ end sequencing of TERC (oligoadenylation) in DKC1_A353V hESCs", "type": "cell-based", "procedure": "Treatment of DKC1_A353V hESCs with RG7834 caused a >15-fold reduction in the 3′-end oligoadenylation of TERC, indicating efficient PAPD5 inhibition in these cells (FIG. 2A).\n3′ end sequencing of TERC: Briefly, ˜100 ng of DNase-treated, rRNA-depleted, Antarctic phosphatase treated RNA was ligated with 40 pmol of barcoded appendix (2 reactions per sample) using T4 RNA Ligase I and 10 mM ATP. Enzymatic reaction was cleaned up using RNA clean and concentrator kit (Zymo). 4 μl of […] from each reaction (8 μl total RNA) was used for cDNA synthesis using a primer complementary to the appendix. The cDNA product was then used as template for 5′ RACE using TERC-specific barcoded primers and a universal primer. The RACE product was size-selected on a 1% agarose gel and fragments ˜100-300 bp were gel purified and amplified using Illumina sequencing primers. Libraries were multiplexed and sequenced on an Illumina NextSeq sequencer (mid-output setting and 1×150 cycle kit). Sequenced reads were filtered using both the TERC primer and the appendix barcode and reads with 100% sequence identify were used for downstream analysis. TERC reads with […] at the mature end (for e.g., UGCAA, UGCAAA, etc.) were quantified as oligoadenylated for analysis."}, "DKC1_A353V hESCs [3]": {"tested_on": "DKC1_A353V hESCs", "test": "Telomere length by telomere restriction fragment analysis in DKC1_A353V hESCs", "type": "cell-based, Homo sapiens", "conditions": "sustained treatment up to 3 months", "procedure": "Telomere length analysis: Telomere length analysis were performed by Telomere Repeat Fragment (TRF) technique. Briefly, DNA was extracted using tail lysis buffer (10 mM Tris-HCl, pH 8.0, 100 mM NaCl, 10 mM EDTA, 0.5% SDS supplemented with 400 μg/ml Proteinase K) at 55° C. overnight. 10 μg of DNA was digested with Rsa1 and Hinf1 restriction enzymes (New England Biolabs, Ispwich, Mass.) overnight and 2.5 μg of product was resolved in a 0.75% agarose gel for 16 hr at 85V in TBE buffer. The gel was incubated with denaturing buffer (1.5M NaCl and 0.5M NaOH) for 45 min followed by neutralizing buffer (1.5M NaCl, 1M Tris-HCl at pH 7.4) for 1 hr. DNA was transferred to a nitrocellulose membrane by capillary action for 2 days in 10× saline-sodium citrate (3M NaCl, 0.3M sodium citrate dehydrate at pH 7.0). After cross-linking, the membrane was hybridized with a ^32P-labelled probe (CCCTAA) and exposed to Carestream BioMax MT film. Mean telomere length was analyzed using TeloTool with the corrected and nonlinear fit order 1 ladder fit options."}, "cell culture models": {"tested_on": "cell culture models", "conditions": "cited from earlier work"}, "TERC": {"tested_on": "TERC", "test": "TERC localization to cajal bodies by fluorescent microscopy (coilin IF, TERC FISH) in HeLa cells", "type": "cell-based, Homo sapiens", "conditions": "RG7834 for 2 days", "procedure": "Th present inventors have previously shown that in DKC1- or PARN-depleted cells, TERC accumulates in cytoplasmic puncta called “cyTER bodies,” instead of its normal localization to cajal bodies in the nucleus. To investigate whether RG7834 treatment rescued TERC localization to cajal bodies in the nucleus, DKC1- or PARN-depleted cells were treated with RG7834 for 2 days. […] Upon treatment with RG7834, —38% of cells had TERC localized to cajal bodies, which is consistent with the 1.5× increase in TERC levels in these cells. RG7834 treatment also rescued TERC localization to cajal bodies in PARN-depleted cells. In PARN knockdown cells, ˜34% of cells had TERC in cajal bodies, with TERC also mostly being localized to cyTER bodies in these cells. However, upon RG7834 treatment, ˜85% of cells had TERC localized to cajal bodies.\nFluorescent microscopy for Cajal bodies and TERC: Cells were seeded directly on glass coverslips (ethanol washed) in 6-well plates and transfected and drug treated as previously described. Coverslips were washed once with 1× DPBS and fixed with 4% formaldehyde in 1× DPBS at room temperature for 10 minutes. Cells were permeabilized in 0.2% Triton 1× DPBS for 10 minutes, and then incubated with rabbit anti-Coilin (Santa Cruz) for 1 hour at room temperature. […]"}},
  "data": [
    {"smiles": "COCCCOc1cc2c(cc1OC)-c1cc(=O)c(C(=O)O)cn1[C@H](C(C)C)C2", "note": "[RG7834]", "values": [
      {"measurement": "activity in cell culture against the HPV B infection", "setting": "[1]", "value": "highly active"},
      {"measurement": "toxicity associated with RG7834 treatment", "setting": "DKC1_A353V hESCs [2]", "value": "no toxicity associated with RG7834 treatment was detected"},
      {"measurement": "reduction in the 3′-end oligoadenylation of TERC", "setting": "PAPD5", "value": "> 15", "unit": "fold"},
      {"measurement": "telomere maintenance (telomere length)", "setting": "DKC1_A353V hESCs [3]", "value": "improved telomere maintenance"},
      {"measurement": "toxicity in cell culture models", "setting": "cell culture models", "value": "low toxicity"},
      {"measurement": "cells with TERC localized to cajal bodies", "setting": "TERC; DKC1 knockdown", "value": "~38", "unit": "%"},
      {"measurement": "cells with TERC localized to cajal bodies", "setting": "TERC; PARN knockdown", "value": "~85", "unit": "%"}
    ]}
  ]
}
